Data set [1] deals with CHO-PDL1/Jurkat-PD1 cell pathway. Briefly: Inhibition of CHO-PDL1/Jurkat-PD1 cell pathway (NFAT luciferase reporter). In kind it is cell-based. Conditions: for EC50: 6 hours incubation, luciferase signal; for maximal fold induction: relative to the signal value of the non-dosed group, read-out: Maximum induction fold. The method, boiled down:
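CHO-K1 cells stably expressing PD-L1, plated overnight, then co-cultured with PD-1/NFAT-luc2 Jurkat cells plus compounds in RPMI 1640 with 2% FBS for 6 h at 37 °C. Luminescence read after One-Glo, 10 min at RT. EC50 fitted from the concentration–signal curve; maximum induction fold calculated relative to the non-dosed group.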
(In general: Reporter assays use an easily measured gene product as a stand-in for the process of interest.)

Data set [2] can be described thus: Pharmacokinetics test in Balb/C mice. The note with it: male, mouse, po, p.o. 5 mg/kg, plasma; for MRT inf: read-out: Average residence time MRT0−∞; for AUC(0-t): read-out: Curve area AUC0−t; for Cmax: read-out: Drug concentration in plasma Cmax; for half-life: read-out: Half life t1/2 (converted); for Tmax: read-out: Peak time tmax. In kind it is in vivo. How it is done: Test Embodiment 6. Pharmacokinetics Test in Balb/C Mice
Taking Balb/C mice as the test animals, the pharmacokinetic behavior in the plasma of mice of the following compound embodiments was studied when orally administered at a dose of 5 mg/kg.
Balb/C Mouse 6/embodiment, male, Shanghai Jisijie Laboratory Animal Co., Ltd., animal production license number (SCXK (Shanghai) 2013-0006 No. 311620400001794).
0.5% HPMC (1% Tween 80), dissolved by sonication, to prepare a clear solution or a homogeneous suspension.
Balb/C mice, male; p.o. after overnight fasting, respectively, at a dose of 5 mg/kg, administered in a volume of 10 mL/kg.
Before and after administration of mice, at 0, 0.5, 1, 2, 4, 6, 8 and 24 hours, 0.1 mL of blood was collected from the orbit, placed in an EDTA-K2 test tube, and centrifuged at 6000 rpm at 4° C. for 6 min to separate the plasma, stored at −80° C.
1) 40 μL of plasma samples were added to 160 μL of acetonitrile for precipitation, mixed and centrifuged at 3500×g for 5 to 20 minutes.
2) 100 μL of the supernatant solution after treatment was taken for LC/MS/MS to analyze the concentration of the compounds to be tested.
2.6 Liquid Phase Analysis • Liquid phase condition: Shimadzu LC-20AD pump • MS conditions: AB Sciex API 4000 Mass Spectrometer • Chromatographic column: phenomenex Gemiu 5 μm C18 50×4.6 mm • Mobile phase: A solution was aqueous 0.1% formic acid solution, B solution was acetonitrile • Flow rate: 0.8 mL/min • Elution time: 0 to 4.0 minutes, the eluent was as follows:
The main parameters of pharmacokinetics were calculated with WinNonlin 8.2, and the results of the mice pharmacokinetic experiments were shown in the following table: […]

A word on the EC50: it is the concentration giving half of the maximal effect. Lower therefore signals higher potency in that assay. In the case of `COc1nc(-c2cccc(-c3cccc(NC(=O)c4nc5c(n4C)CCN(C)C5)c3Cl)c2Cl)ccc1CNC(CO)CO` [Embodiment 174, N-(2,2′-Dichloro-3′-(5-(((1,3-dihydroxypropan-2-yl)amino)methyl)-6-methoxypyridin-2-yl)-[1,1′-biphenyl]-3-yl)-1,5-dimethyl-4,5,6,7-tetrahydro-1H-imidazo[4,5-c]pyridine-2-carboxamide], in data set [1], a half-maximal response (EC50) required 66 nM and the maximal fold induction was 3.5.

As usually defined, the Tmax is the time from dosing to the highest level. Turning to `COc1nc(-c2cccc(-c3cccc(NC(=O)c4nc5c(n4C)CCN(C)C5)c3Cl)c2Cl)ccc1CN1CC(NC(C)=O)C1` [Embodiment 180, N-(3′-(5-((3-Acetylaminoazetidin-1-yl)methyl)-6-methoxypyridin-2-yl)-2,2′-dichloro-[1,1′-biphenyl]-3-yl)-1,5-dimethyl-4,5,6,7-tetrahydro-1H-imidazo[4,5-c]pyridine-2-carboxamide], in data set [1], it took 47 nM to reach a half-maximal effect (EC50) and the maximal fold induction was 3.1. Further, in data set [2], the MRT inf is 12.9 h, the AUC(0-t) stood at 887 ng·h/mL, the Cmax was determined as 116 ng/mL and the half-life was 570 min. Also, the Tmax in data set [2] worked out at 2 h.

`COc1nc(-c2cccc(-c3cccc(NC(=O)c4nc5c(n4C)CCN(C)C5)c3Cl)c2Cl)ccc1CN1CC2(C1)CN(C(C)=O)C2` [Embodiment 123, N-(3′-(5-((6-Acetyl-2,6-diazaspiro[3.3]heptan-2-yl)methyl)-6-methoxypyridin-2-yl)-2,2′-dichloro-[1,1′-biphenyl]-3-yl)-1,5-dimethyl-4,5,6,7-tetrahydro-1H-imidazo[4,5-c]pyridine-2-carboxamide]: in data set [1], the EC50 was 27 nM and the maximal fold induction is 3.4. Further, in data set [2], the MRT inf worked out at 12.8 h, the AUC(0-t) was found to be 778 ng·h/mL, the Cmax turned out to be 59 ng/mL and the half-life is 402 min. In addition, in data set [2], the Tmax came to 4 h.

Turning to `COc1nc(-c2cccc(-c3cccc(NC(=O)c4nc5c(n4C)CCN(C)C5)c3Cl)c2Cl)ccc1CN1CC(F)C1` [Embodiment 120, N-(2,2′-Dichloro-3′-(5-((3-fluoroazetidin-1-yl)methyl)-6-methoxypyridin-2-yl)-[1,1′-biphenyl]-3-yl)-1,5-dimethyl-4,5,6,7-tetrahydro-1H-imidazo[4,5-c]pyridine-2-carboxamide], in data set [1], the EC50 was 70 nM and the maximal fold induction came out at 3.2. Moreover, in data set [2], the MRT inf was 17 h, the AUC(0-t) was 500 ng·h/mL, the Cmax was determined as 34 ng/mL and the half-life is 720 min. The Tmax in data set [2] is 2 h.

As to `CNC(=O)CNCc1cnc(C(=O)Nc2cccc(-c3cccc(NC(=O)c4nc5c(n4C)CCN(C)C5)c3Cl)c2C)cc1OC` [Embodiment 95, N-(2-Chloro-3′-(4-methoxy-5-(((2-(methylamino)-2-carbonylethyl)amino)methyl)picolinamido)-2′-methyl-[1,1′-biphenyl]-3-yl)-1,5-dimethyl-4,5,6,7-tetrahydro-1H-imidazo[4,5-c]pyridine-2-carboxamide], in data set [1], it took 94 nM to reach a half-maximal effect (EC50) and the maximal fold induction amounted to 3.8.

Consider `COc1nc(-c2cccc(-c3cccc(NC(=O)c4nc5c(n4C)CCN(C)C5)c3Cl)c2Cl)ccc1CN[C@H]1CCOC[C@@H]1O` (relative stereo) [Embodiment 175, N-(2,2′-Dichloro-3′-(5-((((3,4-trans)-3-hydroxytetrahydro-2H-pyran-4-yl)amino)methyl)-6-methoxypyridin-2-yl)-[1,1′-biphenyl]-3-yl)-1,5-dimethyl-4,5,6,7-tetrahydro-1H-imidazo[4,5-c]pyridine-2-carboxamide], for which, in data set [1], a half-maximal response (EC50) required 86 nM and the maximal fold induction worked out at 3.6. In addition, in data set [2], the AUC(0-t) was found to be 1630 ng·h/mL, the Cmax was 132 ng/mL and the Tmax stood at 6 h.

`COc1nc(-c2cccc(-c3cccc(NC(=O)c4nc5c(n4C)CCN(C)C5)c3Cl)c2Cl)ccc1CN1CC2(C1)CN(C(=O)C(C)C)C2` [Embodiment 186, N-(2,2′-Dichloro-3′-(5-((6-isobutyryl-2,6-diazaspiro[3.3]heptan-2-yl)methyl)-6-methoxypyridin-2-yl)-[1,1′-biphenyl]-3-yl)-1,5-dimethyl-4,5,6,7-tetrahydro-1H-imidazo[4,5-c]pyridine-2-carboxamide]: in data set [1], the EC50 was 61 nM and the maximal fold induction came to 3. Besides, in data set [2], the MRT inf came out at 22.5 h, the AUC(0-t) is 537 ng·h/mL, the Cmax is 31 ng/mL and the half-life was 912 min. Moreover, the Tmax in data set [2] came to 2 h.

In the case of `CCC(=O)N1CC2(CN(Cc3ccc(-c4cccc(-c5cccc(NC(=O)c6nc7c(n6C)CCN(C)C7)c5Cl)c4Cl)nc3OC)C2)C1` [Embodiment 188, N-(2,2′-Dichloro-3′-(6-methoxy-5-((6-propionyl-2,6-diazaspiro[3.3]heptan-2-yl)methyl)pyridin-2-yl)-[1,1′-biphenyl]-3-yl)-1,5-dimethyl-4,5,6,7-tetrahydro-1H-imidazo[4,5-c]pyridine-2-carboxamide], in data set [1], the midpoint of the response, the EC50, lay at 93 nM and the maximal fold induction was determined as 3.8.

Consider `COc1nc(-c2cccc(-c3cccc(NC(=O)c4nc5c(n4C)CCN(C)C5)c3Cl)c2Cl)ccc1CN1CC(O)(CO)C1` [Embodiment 173, N-(2,2′-Dichloro-3′-(5-((3-hydroxy-3-(hydroxymethyl)azetidin-1-yl)methyl)-6-methoxypyridin-2-yl)-[1,1-biphenyl]-3-yl)-1,5-dimethyl-4,5,6,7-tetrahydro-1H-imidazo[4,5-c]pyridine-2-carboxamide], for which, in data set [1], the EC50 amounted to 82 nM and the maximal fold induction is 3.7.

Take `COc1nc(-c2cccc(-c3cccc(NC(=O)c4nc5c(n4C)CCN(C)C5)c3Cl)c2Cl)ccc1CNC[C@H](C)O` [Embodiment 127, (S)—N-(2,2′-Dichloro-3′-(5-(((2-hydroxypropyl)amino)methyl)-6-methoxypyridin-2-yl)-[1,1′-biphenyl]-3-yl)-1,5-dimethyl-4,5,6,7-tetrahydro-1H-imidazo[4,5-c]pyridine-2-carboxamide]: in data set [2], the MRT inf was found to be 69 h, the AUC(0-t) was 743 ng·h/mL, the Cmax is 37 ng/mL and the half-life was 2820 min. Further, the Tmax in data set [2] was 6 h.

For `COc1nc(-c2cccc(-c3cccc(NC(=O)c4nc5c(n4C)CCN(C)C5)c3Cl)c2Cl)ccc1CN1CC2(CCC(=O)N2)C1` [Embodiment 126, N-(2,2′-Dichloro-3′-(6-methoxy-5-((6-carbonyl-2,5-diazaspiro[3.4]octan-2-yl)methyl)pyridin-2-yl)-[1,1′-biphenyl]-3-yl)-1,5-dimethyl-4,5,6,7-tetrahydro-1H-imidazo[4,5-c]pyridine-2-carboxamide], in data set [1], the EC50 is 94 nM and the maximal fold induction was found to be 3.5. In data set [2], the MRT inf was found to be 12.3 h, the AUC(0-t) was 677 ng·h/mL, the Cmax amounted to 54 ng/mL and the half-life was 504 min. The Tmax in data set [2] came out at 2 h.

On to `COc1nc(-c2cccc(-c3cccc(NC(=O)c4nc5c(n4C)CCN(C)C5)c3Cl)c2Cl)ccc1CN1CC2(COC2)C1` [Embodiment 124, N-(3′-(5-((2-Oxa-6-azaspiro[3.3]heptan-6-yl)methyl)-6-methoxypyridin-2-yl)-2,2′-dichloro-[1,1′-biphenyl]-3-yl)-1,5-dimethyl-4,5,6,7-tetrahydro-1H-imidazo[4,5-c]pyridine-2-carboxamide], for which, in data set [2], the MRT inf turned out to be 25 h, the AUC(0-t) came to 523 ng·h/mL, the Cmax was found to be 36 ng/mL and the half-life is 1200 min. In addition, in data set [2], the Tmax was determined as 4 h.

In the case of `COc1nc(-c2cccc(-c3cccc(NC(=O)c4nc5c(n4C)CCN(C)C5)c3Cl)c2Cl)ccc1CN1CC2(C1)CN(S(C)(=O)=O)C2` [Embodiment 192], in data set [1], the response was half-maximal at 85 nM (EC50) and the maximal fold induction is 3.8.

Consider `COc1nc(-c2cccc(-c3cccc(NC(=O)c4nc5c(n4C)CCN(C)C5)c3Cl)c2Cl)ccc1CN1CC2(CC(NC(C)=O)C2)C1` [Embodiment 234, N-(3′-(5-((6-Acetylamino-2-azaspiro[3.3]heptan-2-yl)methyl)-6-methoxypyridin-2-yl)-2,2′-dichloro-[1,1′-biphenyl]-3-yl)-1,5-dimethyl-4,5,6,7-tetrahydro-1H-imidazo[4,5-c]pyridine-2-carboxamide], for which, in data set [1], the EC50 turned out to be 78 nM and the maximal fold induction is 4.7. In data set [2], the MRT inf was 20.8 h, the AUC(0-t) stood at 273 ng·h/mL, the Cmax is 25 ng/mL and the half-life is 858 min. In addition, the Tmax in data set [2] came to 2 h.

(Values after patent US20230105212A1, “BIPHENYL DERIVATIVE INHIBITOR, PREPARATION METHOD THEREFOR AND USE THEREOF” (SHANGHAI HANSOH BIOMEDICAL CO., LTD., priority 2020, published 2023).)
